{"source": "ChEMBL document CHEMBL1177829", "about": "“A novel organogermanium protected atopic dermatitis induced by oxazolone” (2010)", "key": {"Mus musculus [1]": {"test_system": "Mus musculus", "test": "Antiinflammatory activity against oxazolone-induced atopic dermatitis in nude mouse assessed as decrease in transepidermal water loss at 0.01 % administered topically bid simultaneously with oxazolone qd for 10 days following 5 days post-oxazolone challenge relative to control", "assay_type": "functional", "design": "scale not given: the % may be the effect or the level left"}, "Mus musculus [2]": {"test_system": "Mus musculus", "test": "Antiinflammatory activity against oxazolone-induced atopic dermatitis in nude mouse assessed as reduction in IgE level at 0.3 to 1.8 % administered topically bid simultaneously with oxazolone qd for 10 days following 5 days post-oxazolone challenge relative to control", "assay_type": "functional, organism-based"}, "Mus musculus [3]": {"test_system": "Mus musculus", "test": "Antiinflammatory activity against oxazolone-induced atopic dermatitis in nude mouse assessed as decrease in transepidermal water loss at 1.8 % administered topically bid simultaneously with oxazolone qd for 10 days following 5 days post-oxazolone challenge relative to control", "assay_type": "functional, organism-based", "design": "scale not given: the % may be the effect or the level left"}, "Mus musculus [4]": {"test_system": "Mus musculus", "test": "Antiinflammatory activity against oxazolone-induced atopic dermatitis in nude mouse assessed as decrease in transepidermal water loss at 0.3 % administered topically bid simultaneously with oxazolone qd for 10 days following 5 days post-oxazolone challenge relative to control", "assay_type": "functional, organism-based", "design": "scale not given: the % may be the effect or the level left"}, "Mus musculus [5]": {"test_system": "Mus musculus", "test": "Antiinflammatory activity against oxazolone-induced atopic dermatitis in nude mouse assessed as decrease in skin thickness at 0.3 to 1.8 % administered topically bid simultaneously with oxazolone qd for 10 days following 5 days post-oxazolone challenge relative to control", "assay_type": "functional, organism-based"}, "Mus musculus [6]": {"test_system": "Mus musculus", "test": "Antiinflammatory activity against oxazolone-induced atopic dermatitis in nude mouse assessed as infiltration of lymphocytes in dermis at 1.8 % administered topically bid simultaneously with oxazolone qd for 10 days following 5 days post-oxazolone challenge relative to control", "assay_type": "functional, organism-based"}, "Mus musculus [7]": {"test_system": "Mus musculus", "test": "Antiinflammatory activity against oxazolone-induced atopic dermatitis in nude mouse assessed as alleviation of parkeratotic scales at 1.8 % administered topically bid simultaneously with oxazolone qd for 10 days following 5 days post-oxazolone challenge relative to control", "assay_type": "functional, organism-based"}, "Mus musculus [8]": {"test_system": "Mus musculus", "test": "Antiinflammatory activity against oxazolone-induced atopic dermatitis in nude mouse assessed as decrease in skin thickness at 0.01 % administered topically bid simultaneously with oxazolone qd for 10 days following 5 days post-oxazolone challenge relative to control", "assay_type": "functional, organism-based"}}, "note": "Calls of active or inactive are those of the source. No cut-off for these calls is given here."}
{"molecule": "C[C@H]1C[C@H]2[C@@H]3CCC4=CC(=O)C=C[C@]4(C)[C@@]3(F)[C@@H](O)C[C@]2(C)[C@@]1(O)C(=O)CO", "note": "[BETAMETHASONE]", "values": [{"measurement": "Activity", "setting": "Mus musculus [1]", "result": 57, "unit": "%"}]}
{"molecule": "N-((2S)-2-(3,4-dihydroxy-5-oxo-2,5-dihydrofuran-2-yl)-2-hydroxyethyl)-3-(trimethylgermyl)propanamide", "values": [{"measurement": "Activity", "setting": "Mus musculus [2]", "result": "Active"}, {"measurement": "Activity", "setting": "Mus musculus [3]", "result": 39, "unit": "%"}, {"measurement": "Activity", "setting": "Mus musculus [4]", "result": 6, "unit": "%"}, {"measurement": "Activity", "setting": "Mus musculus [5]", "result": "Active"}, {"measurement": "Activity", "setting": "Mus musculus [6]", "result": "Active"}, {"measurement": "Activity", "setting": "Mus musculus [7]", "result": "Active"}, {"measurement": "Activity", "setting": "Mus musculus [8]", "result": "Active"}]}
